Legend:
human σ2/TMEM97 receptor = biological target: T1, human σ2/TMEM97 receptor (Homo sapiens, UniProt Q5BJF2); test: Binding assay to human σ2/TMEM97 receptor ([3H]-DTG, transfected HEK-293 membranes); conditions: class scale, read-out: Binding σ-2 Ki
T1 construct: expressed in transfected cells; host or cells: HEK-293
How it was run: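 Competition against 10 nM [3H]-DTG (Tris-HCl 50 mM, pH 8.0, 25 °C, 120 min) using 15 μg transfected HEK-293 membrane protein, with 10 μM haloperidol defining NSB. Bound radioactivity counted after filtration; results as single-point % inhibition (1 or 10 μM) or five-point Ki.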

human σ1 receptor = biological target: T2, human σ1 receptor (Homo sapiens, UniProt Q99720); test: Human σ1 receptor radioligand assay ([3H](+)-pentazocine, transfected HEK-293 membranes); conditions: class scale, read-out: Binding σ-1 Ki
T2 construct: expressed in transfected cells; host or cells: HEK-293
T2 sequence (Q99720 whole entry): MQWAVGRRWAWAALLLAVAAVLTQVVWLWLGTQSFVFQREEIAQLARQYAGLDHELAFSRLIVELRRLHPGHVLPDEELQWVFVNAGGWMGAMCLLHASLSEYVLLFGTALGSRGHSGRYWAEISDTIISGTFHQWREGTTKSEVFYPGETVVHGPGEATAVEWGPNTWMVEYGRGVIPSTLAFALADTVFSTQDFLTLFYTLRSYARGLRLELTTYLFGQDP
How it was run: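 Compounds were tested at a single 1 or 10 μM concentration (% inhibition) or at five concentrations to give Ki. They competed with 5 nM [3H](+)-pentazocine for transfected HEK-293 membranes (7 μg) in 50 mM Tris-HCl pH 8 at 37° C for 120 minutes. Nonspecific binding was set with 10 μM haloperidol, and a filtration scintillation read-out was used.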

[1] = system: mechanical hypersensitivity; conditions: SNI mice model of neuropathic pain; cited from earlier work
sigma-2 (σ2) site = sigma-2 (σ2) site (Homo sapiens, UniProt Q5BJF2); conditions: background statement; cited from earlier work
sigma-2 (σ2) site, sequence (Q5BJF2 whole entry): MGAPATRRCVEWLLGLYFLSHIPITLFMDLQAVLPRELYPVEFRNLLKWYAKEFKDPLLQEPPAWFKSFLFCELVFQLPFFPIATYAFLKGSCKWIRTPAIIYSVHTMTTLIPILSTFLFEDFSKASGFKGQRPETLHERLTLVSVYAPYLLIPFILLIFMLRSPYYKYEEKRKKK

T1 sequence (Q5BJF2 whole entry): as above

Row | Compound | Ki (human σ2/TMEM97 receptor) | Ki (human σ1 receptor) | effect on mechanical hypersensitivity [1] | affinity for the sigma-2 (σ2) site (sigma-2 (σ2) site)
1 | CCn1nc(-c2cc(C)on2)c(C(=O)NC2CCCCN(CCC(C)(C)C)C2)c1Cl (centres unmarked) [Example 206, 5-Chloro-N-(1-(3,3-dimethylbutyl)azepan-3-yl)-1-ethyl-3-(5-methylisoxazol-3-yl)-1H-pyrazole-4-carboxamide] | 500 to 1000 nM | 500 to 1000 nM |  | 
2 | CCn1nc(-c2ccnc(C)c2)c(C(=O)N2CCC3(CCN(CCC(C)(C)C)CC3)CC2)c1Cl [Example 207, (5-Chloro-1-ethyl-3-(2-methylpyridin-4-yl)-1H-pyrazol-4-yl)(9-(3,3-dimethylbutyl)-3,9-diazaspiro[5.5]undecan-3-yl)methanone] | < 100 nM | 100 to 500 nM |  | 
3 | Cc1cc(-c2nn(C)c(Cl)c2CC(=O)N2CCC3(CCN(CCC(C)(C)C)CC3)CC2)no1 [Example 208, 2-(5-Chloro-1-methyl-3-(5-methylisoxazol-3-yl)-1H-pyrazol-4-yl)-1-(9-(3,3-dimethylbutyl)-3,9-diazaspiro[5.5]undecan-3-yl)ethan-1-one] | < 100 nM | 500 to 1000 nM |  | 
4 | CCn1nc(-c2ccon2)c(CC(=O)N2CCC3(CCN(CCC(C)(C)C)CC3)CC2)c1Cl [Example 209, 2-(5-Chloro-1-ethyl-3-(isoxazol-3-yl)-1H-pyrazol-4-yl)-1-(9-(3,3-dimethylbutyl)-3,9-diazaspiro[5.5]undecan-3-yl)ethan-1-one] | < 100 nM | < 100 nM |  | 
5 | CCn1nc(-c2cc(C)on2)c(CC(=O)N2CCC3(CCN(CCC(C)(C)C)CC3)CC2)c1Cl [Example 210, 2-(5-Chloro-1-ethyl-3-(5-methylisoxazol-3-yl)-1H-pyrazol-4-yl)-1-(9-(3,3-dimethylbutyl)-3,9-diazaspiro[5.5]undecan-3-yl)ethan-1-one] | < 100 nM | 500 to 1000 nM |  | 
6 | CCn1nc(-c2ccon2)c(CC(=O)Nc2ccc3c(c2)CCN(CCC(C)(C)C)C3)c1Cl [Example 211, 2-(5-Chloro-1-ethyl-3-(isoxazol-3-yl)-1H-pyrazol-4-yl)-N-(2-(3,3-dimethylbutyl)-1,2,3,4-tetrahydroisoquinolin-6-yl)acetamide] | < 100 nM | < 100 nM |  | 
7 | CCn1nc(-c2ccon2)c(CC(=O)NCC2CCCN(CCC(C)(C)C)C2)c1Cl (centres unmarked) [Example 212, 2-(5-Chloro-1-ethyl-3-(isoxazol-3-yl)-1H-pyrazol-4-yl)-N-((1-(3,3-dimethylbutyl)piperidin-3-yl)methyl)acetamide] | 100 to 500 nM | < 100 nM |  | 
8 | Cn1nc(-c2cccc(C(F)(F)F)n2)c(CC(=O)N2CCC3(CCN(CCC(C)(C)C)CC3)CC2)c1Cl [Example 213, 2-(5-Chloro-1-methyl-3-(6-(trifluoromethyl)pyridin-2-yl)-1H-pyrazol-4-yl)-1-(9-(3,3-dimethylbutyl)-3,9-diazaspiro[5.5]undecan-3-yl)ethan-1-one] | < 100 nM | 100 to 500 nM |  | 
9 | Cc1cc(-c2nn(C)c(Cl)c2CC(=O)N2CCCC3(CCN(CCC(C)(C)C)CC3)C2)no1 [Example 214, 2-(5-Chloro-1-methyl-3-(5-methylisoxazol-3-yl)-1H-pyrazol-4-yl)-1-(9-(3,3-dimethylbutyl)-2,9-diazaspiro[5.5]undecan-2-yl)ethan-1-one] | < 100 nM | 100 to 500 nM |  | 
10 | Cc1cc(-c2nn(C)c(Cl)c2CC(=O)NC2CCC3(CC2)CCN(CCC(C)(C)C)CC3)no1 [Example 215, 2-(5-Chloro-1-methyl-3-(5-methylisoxazol-3-yl)-1H-pyrazol-4-yl)-N-(3-(3,3-dimethylbutyl)-3-azaspiro[5.5]undecan-9-yl)acetamide] | < 100 nM | 100 to 500 nM |  | 
11 | CCn1nc(-c2cc(C)on2)c(CC(=O)NC2CCC3(CC2)CCN(CCC(C)(C)C)CC3)c1Cl [Example 216, 2-(5-Chloro-1-ethyl-3-(5-methylisoxazol-3-yl)-1H-pyrazol-4-yl)-N-(3-(3,3-dimethylbutyl)-3-azaspiro[5.5]undecan-9-yl)acetamide] | < 100 nM | < 100 nM |  | 
12 | CCn1nc(-c2cc(C)on2)c(CC(=O)N2CCCC3(CCN(CCC(C)(C)C)CC3)C2)c1Cl [Example 217, 2-(5-Chloro-1-ethyl-3-(5-methylisoxazol-3-yl)-1H-pyrazol-4-yl)-1-(9-(3,3-dimethylbutyl)-2,9-diazaspiro[5.5]undecan-2-yl)ethan-1-one] | < 100 nM | 100 to 500 nM |  | 
13 | CCn1nc(-c2ccon2)c(CC(=O)N2CCCC3(CCN(CCC(C)(C)C)CC3)C2)c1Cl [Example 218, 2-(5-Chloro-1-ethyl-3-(isoxazol-3-yl)-1H-pyrazol-4-yl)-1-(9-(3,3-dimethylbutyl)-2,9-diazaspiro[5.5]undecan-2-yl)ethan-1-one] | < 100 nM | > 1000 nM |  | 
14 | CCn1nc(-c2ccon2)c(CC(=O)NC2CCC3(CC2)CCN(CCC(C)(C)C)CC3)c1Cl [Example 219, 2-(5-Chloro-1-ethyl-3-(isoxazol-3-yl)-1H-pyrazol-4-yl)-N-(3-(3,3-dimethylbutyl)-3-azaspiro[5.5]undecan-9-yl)acetamide] | < 100 nM | 100 to 500 nM |  | 
15 | Cc1cc(-c2nn(C)c(Cl)c2CC(=O)NC2CCN(CCC(C)(C)C)CC2)no1 [Example 220, 2-(5-Chloro-1-methyl-3-(5-methylisoxazol-3-yl)-1H-pyrazol-4-yl)-N-(1-(3,3-dimethylbutyl)piperidin-4-yl)acetamide] | < 100 nM | 100 to 500 nM |  | 
16 | CCn1nc(-c2ccon2)c(CC(=O)NC2CCN(CCC(C)(C)C)CC2)c1Cl [Example 221, 2-(5-Chloro-1-ethyl-3-(isoxazol-3-yl)-1H-pyrazol-4-yl)-N-(1-(3,3-dimethylbutyl)piperidin-4-yl)acetamide] | < 100 nM | < 100 nM |  | 
17 | Cn1nc(-c2cccc(C(F)(F)F)n2)c(CC(=O)NC2CCN(CCC(C)(C)C)CC2)c1Cl [Example 222, 2-(5-Chloro-1-methyl-3-(6-(trifluoromethyl)pyridin-2-yl)-1H-pyrazol-4-yl)-N-(1-(3,3-dimethylbutyl)piperidin-4-yl)acetamide] | < 100 nM | < 100 nM |  | 
18 | CCn1nc(-c2cccc(C(F)(F)F)n2)c(CC(=O)NC2CCN(CCC(C)(C)C)CC2)c1Cl [Example 223, 2-(5-chloro-1-ethyl-3-(6-(trifluoromethyl)pyridin-2-yl)-1H-pyrazol-4-yl)-N-(1-(3,3-dimethylbutyl)piperidin-4-yl)acetamide] | < 100 nM | < 100 nM |  | 
19 | CCn1nc(-c2ccon2)c(CC(=O)NC2CC3(CCN(CCC(C)(C)C)CC3)C2)c1Cl [Example 224, 2-(5-chloro-1-ethyl-3-(isoxazol-3-yl)-1H-pyrazol-4-yl)-N-(7-(3,3-dimethylbutyl)-7-azaspiro[3.5]nonan-2-yl)acetamide] | < 100 nM | 100 to 500 nM |  | 
20 | CCn1nc(-c2cc(C)on2)c(CN2CC3(CCN(CCC(C)(C)C)CC3)CC2=O)c1Cl [Example 225, 2-((5-Chloro-1-ethyl-3-(5-methylisoxazol-3-yl)-1H-pyrazol-4-yl)methyl)-8-(3,3-dimethylbutyl)-2,8-diazaspiro[4.5]decan-3-one] | < 100 nM | 100 to 500 nM |  | 
21 | CCCn1nc(-c2cc(C)on2)c(CN2CC3(CCN(CCC(C)(C)C)CC3)CC2=O)c1Cl [Example 226, 2-((5-Chloro-3-(5-methylisoxazol-3-yl)-1-propyl-1H-pyrazol-4-yl)methyl)-8-(3,3-dimethylbutyl)-2,8-diazaspiro[4.5]decan-3-one] | < 100 nM | 100 to 500 nM |  | 
22 | Cn1nc(-c2cccc(C(F)(F)F)n2)c(CN2CC3(CCN(CCC(C)(C)C)CC3)CC2=O)c1Cl [Example 227, 2-((5-Chloro-1-methyl-3-(6-(trifluoromethyl)pyridin-2-yl)-1H-pyrazol-4-yl)methyl)-8-(3,3-dimethylbutyl)-2,8-diazaspiro[4.5]decan-3-one] | < 100 nM | < 100 nM |  | 
23 | Cc1cccc(-c2nn(C)c(Cl)c2CN2CC3(CCN(CCC(C)(C)C)CC3)CC2=O)n1 [Example 228, 2-((5-Chloro-1-methyl-3-(6-methylpyridin-2-yl)-1H-pyrazol-4-yl)methyl)-8-(3,3-dimethylbutyl)-2,8-diazaspiro[4.5]decan-3-one] | 100 to 500 nM | 100 to 500 nM |  | 
24 | CCn1nc(-c2cccc(C(F)(F)F)n2)c(CN2CC3(CCN(CCC(C)(C)C)CC3)CC2=O)c1Cl [Example 229, 2-((5-Chloro-1-ethyl-3-(6-(trifluoromethyl)pyridin-2-yl)-1H-pyrazol-4-yl)methyl)-8-(3,3-dimethylbutyl)-2,8-diazaspiro[4.5]decan-3-one] | < 100 nM | < 100 nM |  | 
25 | OCCCN1CCCC2CC1c1cc(-c3ccc(C(F)(F)F)cc3)ccc12 (centres unmarked) [UKH-1114] |  |  | relieved mechanical hypersensitivity | 
26 | (+)-SKF-10047 |  |  |  | micromolar affinity
